Measured values: paper PMC9663428, “The protein conformational basis of isoflavone biosynthesis” (Communications Biology, 2022)

Target: T1, 2-HID (Pueraria montana, UniProt E9M5G1)
T1 construct: His-tagged (Ni-NTA) from pDEST17, expressed in E. coli BL21(DE3); first eight residues not observed; one molecule per asymmetric unit
T1 sequence (E9M5G1 1-325): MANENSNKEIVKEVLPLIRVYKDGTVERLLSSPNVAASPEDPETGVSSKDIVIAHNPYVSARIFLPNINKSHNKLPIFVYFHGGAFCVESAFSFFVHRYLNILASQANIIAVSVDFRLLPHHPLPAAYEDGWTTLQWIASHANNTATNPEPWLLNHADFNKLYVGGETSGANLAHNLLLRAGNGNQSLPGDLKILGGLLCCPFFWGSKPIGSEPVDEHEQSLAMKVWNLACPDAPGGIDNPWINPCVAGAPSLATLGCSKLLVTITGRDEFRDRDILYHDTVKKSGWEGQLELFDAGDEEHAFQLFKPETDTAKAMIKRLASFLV
Assay: X-ray crystal structure, co-crystallization, […] Å
Format: binding
Conditions: carboxylesterase product; active site, hydrogen bond to Thr168; complex is 8EA1 or 8EA2, paper does not say which

O=[N+]([O-])c1ccc(O)cc1 [p-nitrophenol]
X-ray crystal structure, co-crystallization, 2.3 Å: only a structure of 2-HID complexed with p-nitrophenol, a product of the carboxylesterase reaction
